Counter-ions that a name gives are not always drawn.
What follows are compounds tested against T1, haematopoietic prostaglandin D synthase (H-PGDS) (Homo sapiens, UniProt O60760) (assay: H-PGDS RapidFire High Throughput Mass Spectrometry Assay). Conditions: H-PGDS RapidFire MS assay, mean pIC50; read-out: Potency Range (mean pIC50) (converted).
T1 construct: Full length human H-PGDS cDNA (Invitrogen Ultimate ORF IOH13026) was amplified by PCR; made in house; host or cells: E. coli BL21 (DE3*), vector pET22b+
T1 sequence (O60760 whole entry): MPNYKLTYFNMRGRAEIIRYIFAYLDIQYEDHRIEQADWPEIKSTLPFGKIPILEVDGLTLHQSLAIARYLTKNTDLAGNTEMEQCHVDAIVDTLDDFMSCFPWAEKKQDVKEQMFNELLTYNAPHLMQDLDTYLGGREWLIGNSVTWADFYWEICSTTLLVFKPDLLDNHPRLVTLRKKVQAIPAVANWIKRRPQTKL
Assay type: biochemical
In short: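 PGH2 (~10 μM burst) generated in situ from arachidonic acid by FLAG-tagged human COX-2 (Sf9-expressed), then converted to PGD2 by full-length human His-tagged H-PGDS from E. coli. PGD2 and PGF2α (substrate surrogate) quantified by RapidFire SPE-triple quadrupole MS; percent conversion calculated.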

Compound	IC50
CC(O)[C@H]1CC[C@H](NC(=O)c2cnc3cc(OC(F)F)ccc3c2)CC1 (stereo partly drawn) [Example 13, 7-(Difluoromethoxy)-N-(trans-4-(-1-hydroxyethyl)cyclohexyl)quinoline-3-carboxamide]	10 to 79.4 nM
CC(C)(O)[C@H]1CC[C@H](NC(=O)c2cnc3cc(C4CC4(F)F)c(Cl)cc3c2)CC1 (stereo partly drawn) [Example 222, 6-Chloro-7-(2,2-difluorocyclopropyl)-N-((trans)-4-(2-hydroxypropan-2-yl)cyclohexyl)quinoline-3-carboxamide]	10 to 79.4 nM
CC(C)(O)[C@H]1CC[C@H](NC(=O)c2cnc3cc(C4CC4(F)F)c(F)cc3c2)CC1 (stereo partly drawn) [Example 151, 7-(2,2-Difluorocyclopropyl)-6-fluoro-N-(trans-4-(2-hydroxypropan-2-yl)cyclohexyl)quinoline-3-carboxamide]	10 to 79.4 nM
C[C@]1(O)C[C@@H](NC(=O)c2cnc3cc(OC(F)F)c(Cl)cc3c2)C1 [Example 138, 6-Chloro-7-(difluoromethoxy)-N-((1s,3s)-3-hydroxy-3-methylcyclobutyl)quinoline-3-carboxamide]	10 to 79.4 nM
CN(C)C(=O)[C@@H]1CC[C@@H](NC(=O)c2cnc3cc(OC(F)F)c(Cl)cc3c2)CO1 (racemic) [Example 126, Racemic 6-Chloro-7-(difluoromethoxy)-N-((3r,6s)-6-(dimethylcarbamoyl)tetrahydro-2H-pyran-3-yl)quinoline-3-carboxamide]	10 to 79.4 nM
C[C@]1(O)C[C@@H](NC(=O)c2cnc3cc(C4CC4)c(Cl)cc3c2)C1 [Example 40, 6-Chloro-7-cyclopropyl-N-((1s,3s)-3-hydroxy-3-methylcyclobutyl)quinoline-3-carboxamide]	10 to 79.4 nM
CC(C)(O)[C@H]1CC[C@H](NC(=O)c2cnc3c(Cl)c(OC(F)F)ccc3c2)CC1 [Example 216, 8-Chloro-7-(difluoromethoxy)-N-((trans)-4-(2-hydroxypropan-2-yl)cyclohexyl)quinoline-3-carboxamide]	10 to 79.4 nM
CC(O)(CO[C@H]1CC[C@H](NC(=O)c2cnc3cc(OC(F)F)c(F)cc3c2)CC1)C(F)(F)F (stereo partly drawn) [Example 76, 7-(Difluoromethoxy)-6-fluoro-N-(trans-4-(3,3,3-trifluoro-2-hydroxy-2-methylpropoxy)cyclohexyl)quinoline-3-carboxamide]	10 to 79.4 nM
N#Cc1cc2cc(C(=O)N[C@H]3CCNC3=O)cnc2cc1C1CC1 [Example 25, (S)-6-Cyano-7-cyclopropyl-N-(2-oxopyrrolidin-3-yl)quinoline-3-carboxamide hydrochloride]	10 to 79.4 nM
CCOC(=O)C[C@H]1CC[C@H](NC(=O)c2cnc3cc(OC(F)F)c(F)cc3c2)CC1 [Example 88, Ethyl 2-(trans-4-(7-(difluoromethoxy)-6-fluoroquinoline-3-carboxamido)cyclohexyl)acetate]	10 to 79.4 nM
O=C(N[C@H]1CC[C@H](N[C@@H](CO)C(F)(F)F)CC1)c1cnc2cc(OC(F)F)c(F)cc2c1 [Example 85, 7-(Difluoromethoxy)-6-fluoro-N-(trans-4-(((S)-1,1,1-trifluoro-3-hydroxypropan-2-yl)amino)cyclohexyl)quinoline-3-carboxamide]	10 to 79.4 nM
CC(C)(O)[C@H]1CC[C@H](NC(=O)c2cnc3cc([S+]([O-])C(F)F)c(F)cc3c2)CC1 (stereo partly drawn) [Example 185, 7-((Difluoromethyl)sulfinyl)-6-fluoro-N-(trans-4-(2-hydroxypropan-2-yl)cyclohexyl)quinoline-3-carboxamide]	10 to 79.4 nM
CC(O)CO[C@H]1CC[C@H](NC(=O)c2cnc3cc(OC(F)F)ccc3c2)CC1 (stereo partly drawn) [Example 16, 7-(Difluoromethoxy)-N-(trans-4-(2-hvdroxypropoxy)cyclohexyl)quinoline-3-carboxamide]	10 to 79.4 nM
CC(C)(O)[C@H]1CC[C@H](NC(=O)c2cnc3c(Cl)c(OC(F)F)c(F)cc3c2)CC1 [Example 235, 8-Chloro-7-(difluoromethoxy)-6-fluoro-N-(trans-4-(2-hydroxypropan-2-yl)cyclohexyl)quinoline-3-carboxamide]	10 to 79.4 nM
Cn1nnnc1N1CCC(NC(=O)c2cnc3cc(Cl)ccc3c2)CC1 [Example 109, 7-Chloro-N-(1-(1-methyl-1H-tetrazol-5-yl)piperidin-4-yl)quinoline-3-carboxamide]	100 to 1000 nM
CC(C)(O)CO[C@H]1CC[C@H](NC(=O)c2cnc3cc(OC(F)F)c(F)cc3c2)CC1 [Example 60, 7-(Difluoromethoxy)-6-fluoro-N-(trans-4-(2-hydroxy-2-methylpropoxy)cyclohexyl)quinoline-3-carboxamide]	10 to 79.4 nM
O=C(N[C@H]1CC[C@@H](N2CC(F)C2)CC1)c1cnc2cc(OC(F)F)c(F)cc2c1 [Example 89, 7-(Difluoromethoxy)-6-fluoro-N-(cis-4-(3-fluoroazetidin-1-yl)cyclohexyl)quinoline-3-carboxamide]	100 to 1000 nM
O=C(N[C@H]1CC[C@H](NCC(F)F)CC1)c1cnc2cc(C3CC3)c(F)cc2c1 [Example 43, 7-Cyclopropyl-N-(trans-4-((2,2-difluoroethyl)amino)cyclohexyl)-6-fluoroquinoline-3-carboxamide]	< 10 nM

Compound	IC50
O=C(NC1CCC(N2CCOCC2)CC1)c1cnc2cc(OC(F)F)c(F)cc2c1 (stereo not drawn) [Example 68, 7-(Difluoromethoxy)-6-fluoro-N-(4-morpholinocyclohexyl)quinoline-3-carboxamide trifluoroacetic Acid Salt]	10 to 79.4 nM
CCOC(=O)c1cnc(N2CC(NC(=O)c3cnc4cc(OC(F)F)c(F)cc4c3)C2)o1 [Example 84, Ethyl 2-(3-(7-(difluoromethoxy)-6-fluoroquinoline-3-carboxamido)azetidin-1-yl)oxazole-5-carboxylate]	10 to 79.4 nM
C[C@]1(O)CC[C@H](NC(=O)c2cnc3cc(OC(F)F)c(Cl)cc3c2)C1 (racemic) [Example 146, Racemic 6-Chloro-7-(difluoromethoxy)-N-((1S,3S)-3-hydroxy-3-methylcyclopentyl)quinoline-3-carboxamide]	10 to 79.4 nM
CC(C)(O)[C@H]1CC[C@H](NC(=O)c2cnc3cc(OC(F)F)c(Cl)cc3c2)CC1 [Example 116, (6-Chloro-7-(difluoromethoxy)-N-(trans-4-(2-hydroxypropan-2-yl)cyclohexyl)quinoline-3-carboxamide, trifluoroacetate]	< 10 nM
Cn1nnnc1N1CCC(NC(=O)c2cnc3cc(C4CC4)c(C#N)cc3c2)CC1 [Example 24, 6-Cyano-7-cyclopropyl-N-(1-(1-methyl-1H-tetrazol-5-yl)piperidin-4-yl)quinoline-3-carboxamide]	10 to 79.4 nM
CC(C)(O)[C@H]1CC[C@H](NC(=O)c2cnc3cc(C4CC4)ccc3c2)CC1 [Example 192, 7-Cyclopropyl-N-(trans-4-(2-hydroxypropan-2-yl)cyclohexyl)quinoline-3-carboxamide]	< 10 nM
CNc1cc2ncc(C(=O)N[C@H]3CC[C@H](C(C)(C)O)CC3)cc2cc1Cl [Example 209]	< 10 nM
O=C(N[C@H]1CCN(CC2CC2)C1=O)c1cnc2cc(OC(F)F)c(Cl)cc2c1 [Example 120, (S)-6-Chloro-N-(1-(cyclopropylmethyl)-2-oxopyrrolidin-3-yl)-7-(difluoromethoxy)quinoline-3-carboxamide]	10 to 79.4 nM
C#CCNC(=O)CO[C@H]1CC[C@H](NC(=O)c2cnc3cc(OC(F)F)c(F)cc3c2)CC1 [Example 102, 7-(Difluoromethoxy)-6-fluoro-N-(trans-4-(2-oxo-2-(prop-2-yn-1-ylamino)ethoxy)cyclohexyl)quinoline-3-carboxamide]	10 to 79.4 nM
CC(N[C@H]1CC[C@H](NC(=O)c2cnc3cc(OC(F)F)c(Br)cc3c2)CC1)C(F)F (mixture of isomers) [Example 156, 6-Bromo-7-(difluoromethoxy)-N-(trans-4-((1,1-difluoropropan-2-yl)amino)cyclohexyl)quinoline-3-carboxamide]	< 10 nM
CCOc1cc2ncc(C(=O)N[C@H]3CC[C@H](C(C)(C)O)CC3)cc2cc1F [Example 178, 7-Ethoxy-6-fluoro-N-(trans-4-(2-hydroxypropan-2-yl)cyclohexyl)quinoline-3-carboxamide]	10 to 79.4 nM
Cn1nnnc1N1CCC(NC(=O)c2cnc3c4c(ccc3c2)CCO4)CC1 [Example 112, N-(1-(1-Methyl-1H-tetrazol-5-yl)piperidin-4-yl)-2,3-dihydrofuro[3,2-h]quinoline-7-carboxamide]	10 to 79.4 nM
CC(C)(O)[C@H]1CC[C@H](NC(=O)c2cnc3c(Cl)c(OC(F)F)c(Cl)cc3c2)CC1 [Example 217, 6,8-Dichloro-7-(difluoromethoxy)-N-((trans)-4-(2-hydroxypropan-2-yl)cyclohexyl)quinoline-3-carboxamide]	< 10 nM
CC1(O)CC(NC(=O)c2cnc3cc(N4CCC4)c(Cl)cc3c2)C1 (stereo not drawn) [Example 167, 7-(Azetidin-1-yl)-6-chloro-N-(3-hydroxy-3-methylcyclobutyl)quinoline-3-carboxamide trifluoroacetic Acid Salt]	< 10 nM
O=C(NC1CCOCC1)c1cnc2cc(OC(F)F)c(Cl)cc2c1 [Example 148, 6-Chloro-7-(difluoromethoxy)-N-(tetrahydro-2H-pyran-4-yl)quinoline-3-carboxamide]	10 to 79.4 nM
Cc1ccc2cc(C(=O)N[C@H]3CC[C@H](C(C)(C)O)CC3)cnc2c1 [Example 186, N-(trans-4-(2-Hydroxypropan-2-yl)cyclohexyl)-7-methylquinoline-3-carboxamide]	100 to 1000 nM
O=C(N[C@H]1CC[C@H](N[C@@H](CO)C(F)(F)F)CC1)c1cnc2cc(OC(F)F)c(Br)cc2c1 [Example 153, 6-Bromo-7-(difluoromethoxy)-N-(trans-4-(((S)-1,1,1-trifluoro-3-hydroxypropan-2-yl)amino)cyclohexyl)quinoline-3-carboxamide]	< 10 nM

Same assay, conditions: in at least one experimental run; read-out: H-PGDS pIC50 value (converted)

Compound	IC50
CC(C)(O)[C@H]1CC[C@H](NC(=O)c2cnc3cc(C4CC4(F)F)c(Cl)cc3c2)CC1 (stereo partly drawn) [Example 222, 6-Chloro-7-(2,2-difluorocyclopropyl)-N-((trans)-4-(2-hydroxypropan-2-yl)cyclohexyl)quinoline-3-carboxamide]	63.1 nM
C[C@]1(O)C[C@@H](NC(=O)c2cnc3cc(OC(F)F)c(Cl)cc3c2)C1 [Example 138, 6-Chloro-7-(difluoromethoxy)-N-((1s,3s)-3-hydroxy-3-methylcyclobutyl)quinoline-3-carboxamide]	20 nM
N#Cc1cc2cc(C(=O)N[C@H]3CCNC3=O)cnc2cc1C1CC1 [Example 25, (S)-6-Cyano-7-cyclopropyl-N-(2-oxopyrrolidin-3-yl)quinoline-3-carboxamide hydrochloride]	25.1 nM
CC(C)(O)[C@H]1CC[C@H](NC(=O)c2cnc3cc(OC(F)F)c(Cl)cc3c2)CC1 [Example 116, (6-Chloro-7-(difluoromethoxy)-N-(trans-4-(2-hydroxypropan-2-yl)cyclohexyl)quinoline-3-carboxamide, trifluoroacetate]	2.51 nM

From patent US20210238162A1, “CHEMICAL COMPOUNDS” (GlaxoSmithKline Intellectual Property Development Limited, priority 2015, published 2021)
